Measurements from PubChem BioAssay (NCI).
“And” between values parts separate entries of the source, which are not always exact repeats. Equal entries are not always repeated.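 Growth conditions: 96-well plates. Treatment: test compound, 48 hours, 5 concentrations. Analysis: linear interpolation between bracketing concentrations; unreached endpoints set to highest concentration. The concentration for 50% growth inhibition is given as GI50. TGI: total growth inhibition.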

How the values were obtained:
Test in all cases: NCI anticancer screen, dose series, 48 h
ACHN renal = tested on: ACHN renal
EKVX NSCLC = tested on: EKVX NSCLC
HT29 colon = tested on: HT29 colon
NCI-H23 lung = tested on: NCI-H23 lung
NCI-H522 lung = tested on: NCI-H522 lung
NCI/ADR-RES ovarian = tested on: NCI/ADR-RES ovarian
RPMI-8226 leukemia = tested on: RPMI-8226 leukemia
SK-MEL-28 melanoma = tested on: SK-MEL-28 melanoma
SN12C renal = tested on: SN12C renal
SNB-19 CNS = tested on: SNB-19 CNS

Compound | TGI (ACHN renal) | TGI (EKVX NSCLC) | TGI (HT29 colon) | TGI (NCI-H23 lung) | TGI (NCI-H522 lung) | TGI (NCI/ADR-RES ovarian) [µM] | TGI (RPMI-8226 leukemia) | TGI (SK-MEL-28 melanoma) | TGI (SN12C renal) | TGI (SNB-19 CNS) [µM] | GI50 (ACHN renal) [µM] | GI50 (EKVX NSCLC) [µM] | GI50 (HT29 colon) [µM] | GI50 (NCI-H23 lung) [µM] | GI50 (NCI-H522 lung) [µM] | GI50 (NCI/ADR-RES ovarian) [µM] | GI50 (RPMI-8226 leukemia) | GI50 (SK-MEL-28 melanoma) [µM] | GI50 (SN12C renal) [µM] | GI50 (SNB-19 CNS) [µM]
Nn1c(CCCCCCCCc2nnc(COc3c(O)ccc4ccccc34)n2N)nnc1COc1c(O)ccc2ccccc12 | > 100 µM | > 100 µM | > 100 µM | > 100 µM | > 100 µM | > 100 | > 100 µM | > 100 µM | > 100 µM | > 100 |  |  |  |  |  |  |  |  |  | 
O=C1CCC(=Nc2ccc(Cl)cc2)N1C(=O)COc1ccc(OCC(=O)N2C(=O)CSC2=Nc2ccc(Cl)cc2)cc1 | > 100 µM | > 100 µM | > 100 µM | > 100 µM | > 100 µM | > 100 | > 100 µM | > 100 µM | > 100 µM | > 100 |  |  |  |  |  |  |  |  |  | 
COP(=O)(O)/C=C/C(NC(=O)C(Cl)(Cl)Cl)c1ccccc1 (stereo unspecified) | > 100 µM | > 100 µM | > 100 µM | > 100 µM | > 100 µM | > 100 | > 100 µM | > 100 µM | > 100 µM | > 100 |  |  |  |  |  |  |  |  |  | 
COc1cc2c(cc1OCCCCOc1cc(-c3ccc(F)cc3)nc(C)n1)N=C[C@@H]1CCCN1C2=O | 0.823 µM | 5.18 µM | 3.92 µM | 1.37 µM | 2.28 µM | 2.12 | 0.36 µM | 2.81 µM | 7.55 µM | 4.75 |  |  |  |  |  |  |  |  |  | 
O=[N+]([O-])C(=C(N1CCCCC1)N1CCCCC1)/C(Cl)=C(\Cl)Br | 79.5 µM | 37.1 µM | > 100 µM | 41.2 µM | 33.9 µM | 91.8 | 44.2 µM | 41.4 µM | > 100 µM | 87.1 |  |  |  |  |  |  |  |  |  | 
CN(C)c1nc(=NCc2ccncc2)ss1 | 18.7 µM | > 100 µM | 38.5 µM | 38.2 µM | > 100 µM | > 100 | 53.1 µM | > 93.9 µM | 36 µM | > 100 |  |  |  |  |  |  |  |  |  | 
COc1ccc2c(c1)O/C(=C\c1cccc(OCC(=O)Nc3nc4c(s3)CCCC4)c1)C2=O | 33.6 µM | > 100 µM | > 100 µM | > 100 µM | 13.9 µM | > 100 | > 33.2 µM | > 100 µM | > 100 µM | > 100 | 4.43 | > 66.3 | 25.1 | 5.52 | 3.79 | 60.8 | 3.41 µM | > 100 | 4.78 | 44.6
Cc1ccc(S(=O)(=O)N2CCSCCSCCSCCSCC2)cc1 | > 100 µM | > 89.9 µM | > 100 µM | > 92.6 µM | > 69.8 µM | 77.1 | > 100 µM | > 100 µM | > 96.8 µM | 47.3 |  |  |  |  |  |  |  |  |  | 
O=C(O)C1CC(c2ccc(F)cc2)=Nc2ccc(F)cc2S1 (stereo unspecified) | > 100 µM | > 100 µM | > 100 µM | > 100 µM | > 100 µM | > 100 | > 100 µM | > 100 µM | > 100 µM | > 100 |  |  |  |  |  |  |  |  |  | 
O=C1C(c2c(O)[nH]c3ccc(S(=O)(=O)O)cc23)=Nc2ccccc21 | > 100 µM | > 100 µM | > 100 µM | > 100 µM | > 100 µM | > 100 | > 100 µM | > 100 µM | > 100 µM | > 100 |  |  |  |  |  |  |  |  |  | 
Cc1cn2c(/C=C3/C(=O)Nc4cccc(Cl)c43)c(Cl)nc2s1 | > 100 µM | > 100 µM | > 100 µM | > 100 µM | > 100 µM | > 100 | > 100 µM | 36.5 µM | > 100 µM | > 100 |  |  |  |  |  |  |  |  |  | 
CC1(C)C(c2ccccc2)=[N+]([O-])C(C)(C)N1O | > 10 µM | > 10 µM | > 10 µM | > 10 µM | > 10 µM | > 10 | > 10 µM | > 10 µM | > 10 µM | > 10 |  |  |  |  |  |  |  |  |  | 
CCC1=CCC23C(=O)C=CC(=O)C2(C1)C(=O)c1cccc(OC)c1C3=O (stereo unspecified) | 27.4 µM | 32.9 µM | 55.8 µM | 46.4 µM | > 100 µM | 59.5 | 33.4 µM | 33.3 µM | 35.2 µM | 53.7 |  |  |  |  |  |  |  |  |  | 
Oc1ccc(-c2nnc3sc(-c4ccc(F)cc4)nn23)cc1 | > 100 µM | > 100 µM | > 100 µM | 84.9 µM | > 100 µM | > 100 | > 100 µM | > 100 µM | > 100 µM | > 100 | 24.7 | 70.8 | > 100 | 27.8 | 62 | 43.6 | 39 µM | > 100 | 42.5 | 21.3
C=C1C(=O)OC2/C=C(\CO)C(OC(C)=O)CC(O)/C(C)=C/C(OC(=O)C(C)CC)C12 (stereo unspecified) | 56.7 µM and 72.7 µM | 54.5 µM and 61.5 µM | 46.6 µM and 35.5 µM | 32.1 µM and 59.9 µM | 15.6 µM and 20.3 µM | > 100 | 23.4 µM and 56.3 µM | 32.3 µM and 70.1 µM | 36 µM and 36.6 µM | > 100 |  |  |  |  |  |  | 5.57 µM and 24.9 µM |  |  | 
C=C(Cl)/C(=C\Cl)CCC(Br)C(C)C (stereo unspecified) | > 100 µM | > 100 µM | > 100 µM | > 100 µM | 39.9 µM | > 100 | > 100 µM | > 100 µM | > 100 µM | > 100 |  |  |  |  |  |  |  |  |  | 
